Source: patent US11857565B2, “Hydrophobic Auristatin F compounds and conjugates thereof” (priority 2018, dated 2024)
Read-outs that look alike come from different tables or passages of the source. Starred links: 1 amine or outer side, 2 acyl side, 3 side chain; linkers in the order of their positions; H or OH if unused. Non-standard residues stand in square brackets, D forms with d. Residues, ends and D or L forms follow the SMILES beside them. *: point of attachment. Dolaproine = CO[C@@H]([C@@H]1CCCN1)[C@@H](C)C(=O)O; X5 = CC(C)[C@@H](C(=O)[*:2])N(C)CCCN(C)[*:1]; X16 = CC(CCN(C)[C@H](C(=O)*)C(C)C)CC(C)(C)C; X18 = CCCCCCCCCCCCCCCN(C)[C@H](C(=O)*)C(C)C; Dil = CC[C@H](C)[C@H](NC)[C@@H](CC(=O)O)OC; X21 = CCCCCCCCCCCN(C)[C@H](C(=O)*)C(C)C; X8 = CCCCCCCCCCCCN(C)[C@H](C(=O)*)C(C)C; X12 = CCCCCCCCCCN(C)[C@H](C(=O)*)C(C)C; X11 = CCCCCCCCCN(C)[C@H](C(=O)*)C(C)C; X14 = CCCCCCCCN(C)[C@H](C(=O)*)C(C)C; X24 = CC(C)CCCN(C)[C@H](C(=O)*)C(C)C; X20 = CCCCCCCN(C)[C@H](C(=O)*)C(C)C; X22 = CC(C)CCN(C)[C@H](C(=O)*)C(C)C; NMe2Val = CC(C)[C@@H](C(=O)*)N(C)C; X13 = CCCCCN(C)[C@H](C(=O)*)C(C)C; X23 = CCCN(CCC)[C@H](C(=O)*)C(C)C; X9 = CCCCCCN(C)[C@H](C(=O)*)C(C)C; X10 = CCCCN(C)[C@H](C(=O)*)C(C)C; X15 = CCCN(C)[C@H](C(=O)*)C(C)C; X17 = CCN(CC)[C@H](C(=O)*)C(C)C; X19 = CCN(C)[C@H](C(=O)*)C(C)C; NMeV = CN[C@H](C(=O)O)C(C)C; Boc = CC(C)(C)OC(=O)*

Assays:
Assay type in all cases: cell-based
[1] = system: MDR+ HL60/RV acute myeloid leukemia cell line; experiment: In vitro cytotoxicity (CellTiter-Glo cell proliferation assay), free drugs on HL60/RV; conditions: read-out: In vitro IC50 HL60/RV (MDR+)
Method: (§1) The cytotoxicity of an auristatin Ligand Drug Conjugate or free auristatin drug was measured by a cell proliferation assay employing the protocol described in Promega Corp. Technical Bulletin TB288; Mendoza et al., 2002, Cancer Res. 62:5485-5488), the methods of which is specifically incorporated by reference herein. Briefly, an aliquot of 100 μl of cell culture containing about […] (e.g., HL-60, SK-MEL-5, etc.) in medium is deposited in each well of a 96-well, opaque-walled plate. Control wells were prepared containing medium and without cells. Free Drug or conjugate is added to the experimental wells and incubated for 96 h and are then equilibrated to room temperature for approximately 30 minutes whereupon a volume of CellTiter-Glo™ reagent equal to the volume of cell culture medium present in each well is added. The contents are mixed for 2 minutes on an orbital shaker to induce cell lysis and the plate is incubated at room temperature for 10 minutes to stabilize the luminescence signal for recordation.

[2] = system: MDR− HL60 acute myeloid leukemia cell line; experiment: In vitro cytotoxicity (CellTiter-Glo cell proliferation assay), free drugs on HL60; conditions: read-out: In vitro IC50 HL60 (MDR−)
Method: as §1

SK-MEL-5 Melanoma = experiment: In vitro cytotoxicity, free drugs on SK-MEL-5; conditions: free drug
Method: as §1

IGR-37 Melanoma = experiment: In vitro cytotoxicity, free drugs on IGR-37; conditions: free drug
Method: as §1

SK-MEL-28 Melanoma = experiment: In vitro cytotoxicity, free drugs on SK-MEL-28; conditions: free drug
Method: as §1

A375 Melanoma = experiment: In vitro cytotoxicity, free drugs on A375; conditions: free drug
Method: as §1

[3] = In vitro cytotoxicity, free drugs on Colo-853; conditions: free drug; read-out: In vitro IC50 Colo-853 Colon Cancer
Method: as §1

A2058 Melanoma = experiment: In vitro cytotoxicity, free drugs on A2058; conditions: free drug
Method: as §1

Row | Compound | IC50 ([1]; Homo sapiens, HL-60, 96 h) [nM] | IC50 ([2]; Homo sapiens, HL-60, 96 h) [nM] | other results
1 | CCCCCCCCCCCCCCCN(C)[C@H](C(=O)N[C@H](C(=O)N(C)[C@@H]([C@@H](C)CC)[C@@H](CC(=O)N1CCC[C@H]1[C@H](OC)[C@@H](C)C(=O)N[C@@H](Cc1ccccc1)C(=O)O)OC)C(C)C)C(C)C [Compound 15, Pentadecyl-AF] (X18-V[Dil][Dolaproine]F-OH) | 294 | 4.7 | 
2 | CCCN(C)[C@H](C(=O)N[C@H](C(=O)N(C)[C@@H]([C@@H](C)CC)[C@@H](CC(=O)N1CCC[C@H]1[C@H](OC)[C@@H](C)C(=O)N[C@@H](Cc1ccccc1)C(=O)O)OC)C(C)C)C(C)C [Compound 5, Propyl-AF] (X15-V[Dil][Dolaproine]F-OH) | 82.1 | 24.5 | 
3 | CC[C@H](C)[C@@H]([C@@H](CC(=O)N1CCC[C@H]1[C@H](OC)[C@@H](C)C(=O)N[C@@H](Cc1ccccc1)C(=O)O)OC)N(C)C(=O)[C@@H](NC(=O)[C@@H](NC)C(C)C)C(C)C [Compound 2, Monomethyl auristatin F, reference compound] (H-[NMeV]V[Dil][Dolaproine]F-OH) |  |  | IC50 (SK-MEL-5 Melanoma): 35.6 nM; IC50 (IGR-37 Melanoma): 72.5 nM; IC50 (SK-MEL-28 Melanoma): 138 nM; IC50 (A375 Melanoma): 48.9 nM; IC50 [3]: 90.2 nM; IC50 (A2058 Melanoma): 84.2 nM
4 | CC[C@H](C)[C@@H]([C@@H](CC(=O)N1CCC[C@H]1[C@H](OC)[C@@H](C)C(=O)N[C@@H](Cc1ccccc1)C(=O)O)OC)N(C)C(=O)[C@@H](NC(=O)[C@H](C(C)C)N(C)CCCC(C)C)C(C)C [Compound 19, 4-Methylpentyl-AF] (X24-V[Dil][Dolaproine]F-OH) | 20.5 | 4.9 | 
5 | CCCCCCCN(C)[C@H](C(=O)N[C@H](C(=O)N(C)[C@@H]([C@@H](C)CC)[C@@H](CC(=O)N1CCC[C@H]1[C@H](OC)[C@@H](C)C(=O)N[C@@H](Cc1ccccc1)C(=O)O)OC)C(C)C)C(C)C [Compound 9, Heptyl-AF] (X20-V[Dil][Dolaproine]F-OH) | 88.5 | 7.7 | 
6 | CC[C@H](C)[C@@H]([C@@H](CC(=O)N1CCC[C@H]1[C@H](OC)[C@@H](C)C(=O)N[C@@H](Cc1ccccc1)C(=O)O)OC)N(C)C(=O)[C@@H](NC(=O)[C@H](C(C)C)N(C)CC)C(C)C [Compound 4, Ethyl-AF] (X19-V[Dil][Dolaproine]F-OH) | 145 | 23.2 | 
7 | CCCCCCCCCCCCN(C)[C@H](C(=O)N[C@H](C(=O)N(C)[C@@H]([C@@H](C)CC)[C@@H](CC(=O)N1CCC[C@H]1[C@H](OC)[C@@H](C)C(=O)N[C@@H](Cc1ccccc1)C(=O)O)OC)C(C)C)C(C)C [Compound 14, Dodecyl-AF] (X8-V[Dil][Dolaproine]F-OH) | 138 | 1.4 | 
8 | CC[C@H](C)[C@@H]([C@@H](CC(=O)N1CCC[C@H]1[C@H](OC)[C@@H](C)C(=O)N[C@@H](Cc1ccccc1)C(=O)O)OC)N(C)C(=O)[C@@H](NC(=O)[C@H](C(C)C)N(C)CCCN(C)C(=O)OC(C)(C)C)C(C)C [Compound 25, (Boc-N-methyl)-propyl-AF] (Boc-[X5]V[Dil][Dolaproine]F-OH) |  |  | IC50 (SK-MEL-5 Melanoma; Homo sapiens, SK-MEL-5): 6.1 nM; IC50 (IGR-37 Melanoma; Homo sapiens, IGR-37): 16.1 nM; IC50 (SK-MEL-28 Melanoma; Homo sapiens, SK-MEL-28): 17.2 nM; IC50 (A375 Melanoma; Homo sapiens, A-375): 5.9 nM; IC50 [3]: 15.1 nM; IC50 (A2058 Melanoma; Homo sapiens, A2058): 4 nM
9 | CCCCN(C)[C@H](C(=O)N[C@H](C(=O)N(C)[C@@H]([C@@H](C)CC)[C@@H](CC(=O)N1CCC[C@H]1[C@H](OC)[C@@H](C)C(=O)N[C@@H](Cc1ccccc1)C(=O)O)OC)C(C)C)C(C)C [Compound 6, Butyl-AF] (X10-V[Dil][Dolaproine]F-OH) | 47.9 | 14.3 | 
10 | CCCCCCN(C)[C@H](C(=O)N[C@H](C(=O)N(C)[C@@H]([C@@H](C)CC)[C@@H](CC(=O)N1CCC[C@H]1[C@H](OC)[C@@H](C)C(=O)N[C@@H](Cc1ccccc1)C(=O)O)OC)C(C)C)C(C)C [Compound 8, Hexyl-AF] (X9-V[Dil][Dolaproine]F-OH) | 40.9 | 6.9 | 
11 | CC[C@H](C)[C@@H]([C@@H](CC(=O)N1CCC[C@H]1[C@H](OC)[C@@H](C)C(=O)N[C@@H](Cc1ccccc1)C(=O)O)OC)N(C)C(=O)[C@@H](NC(=O)[C@H](C(C)C)N(C)C)C(C)C [Compound 1, Auristatin F] (NMe2Val-V[Dil][Dolaproine]F-OH) |  |  | IC50 ([1]; free drug, 96 h incubation): 388 nM; IC50 ([2]; free drug, 96 h incubation): 137 nM
12 | CCCCCN(C)[C@H](C(=O)N[C@H](C(=O)N(C)[C@@H]([C@@H](C)CC)[C@@H](CC(=O)N1CCC[C@H]1[C@H](OC)[C@@H](C)C(=O)N[C@@H](Cc1ccccc1)C(=O)O)OC)C(C)C)C(C)C [Compound 7, Pentyl-AF] (X13-V[Dil][Dolaproine]F-OH) | 35.7 | 6.6 | 
13 | CC[C@H](C)[C@@H]([C@@H](CC(=O)N1CCC[C@H]1[C@H](OC)[C@@H](C)C(=O)N[C@@H](Cc1ccccc1)C(=O)O)OC)N(C)C(=O)[C@@H](NC(=O)[C@H](C(C)C)N(CC)CC)C(C)C [Compound 22, Bis(ethyl)-AF] (X17-V[Dil][Dolaproine]F-OH) | 202 | 13.6 | 
14 | CCCCCCCCCCN(C)[C@H](C(=O)N[C@H](C(=O)N(C)[C@@H]([C@@H](C)CC)[C@@H](CC(=O)N1CCC[C@H]1[C@H](OC)[C@@H](C)C(=O)N[C@@H](Cc1ccccc1)C(=O)O)OC)C(C)C)C(C)C [Compound 12, Decyl-AF] (X12-V[Dil][Dolaproine]F-OH) | 59.2 | 1 | 
15 | CCCCCCCCCCCN(C)[C@H](C(=O)N[C@H](C(=O)N(C)[C@@H]([C@@H](C)CC)[C@@H](CC(=O)N1CCC[C@H]1[C@H](OC)[C@@H](C)C(=O)N[C@@H](Cc1ccccc1)C(=O)O)OC)C(C)C)C(C)C [Compound 13, Undecyl-AF] (X21-V[Dil][Dolaproine]F-OH) | 60.2 | 1 | 
16 | CC[C@H](C)[C@@H]([C@@H](CC(=O)N1CCC[C@H]1[C@H](OC)[C@@H](C)C(=O)N[C@@H](Cc1ccccc1)C(=O)O)OC)N(C)C(=O)[C@@H](NC(=O)[C@H](C(C)C)N(C)CCC(C)C)C(C)C [Compound 21, 3-Methylbutyl-AF] (X22-V[Dil][Dolaproine]F-OH) | 46.3 | 9 | 
17 | CCCN(CCC)[C@H](C(=O)N[C@H](C(=O)N(C)[C@@H]([C@@H](C)CC)[C@@H](CC(=O)N1CCC[C@H]1[C@H](OC)[C@@H](C)C(=O)N[C@@H](Cc1ccccc1)C(=O)O)OC)C(C)C)C(C)C [Compound 23, Bis(propyl)-AF] (X23-V[Dil][Dolaproine]F-OH) | 437 | 6.2 | 
18 | CCCCCCCCN(C)[C@H](C(=O)N[C@H](C(=O)N(C)[C@@H]([C@@H](C)CC)[C@@H](CC(=O)N1CCC[C@H]1[C@H](OC)[C@@H](C)C(=O)N[C@@H](Cc1ccccc1)C(=O)O)OC)C(C)C)C(C)C [Compound 10, Octyl-AF] (X14-V[Dil][Dolaproine]F-OH) | 55.9 | 3.9 | 
19 | CCCCCCCCCN(C)[C@H](C(=O)N[C@H](C(=O)N(C)[C@@H]([C@@H](C)CC)[C@@H](CC(=O)N1CCC[C@H]1[C@H](OC)[C@@H](C)C(=O)N[C@@H](Cc1ccccc1)C(=O)O)OC)C(C)C)C(C)C [Compound 11, Nonyl-AF] (X11-V[Dil][Dolaproine]F-OH) | 35.4 | 1.8 | 
20 | CC[C@H](C)[C@@H]([C@@H](CC(=O)N1CCC[C@H]1[C@H](OC)[C@@H](C)C(=O)N[C@@H](Cc1ccccc1)C(=O)O)OC)N(C)C(=O)[C@@H](NC(=O)[C@H](C(C)C)N(C)CCC(C)CC(C)(C)C)C(C)C (stereo partly drawn) [Compound 20, 3,5,5-Trimethylhexyl-AF] (X16-V[Dil][Dolaproine]F-OH) | 17 | 1 | 
